pIC50: −log10 of the molar value. Read-outs that look alike come from different tables or passages of the source.
Key:
mu opioid receptor (MOR) = mu opioid receptor (MOR) (Homo sapiens (Human), UniProt P35372); experiment: Competitive radioligand binding at MOR ([3H] Naloxone)
Experimental: (§1) Receptor Binding at MOR and NMDA.
(§2) Affinities of various compounds were measured in vitro using competitive radioligand binding assays. Serial dilutions of test compounds were incubated with membranes prepared from CHO-K1 cells expressing the mu opioid receptor (MOR; for opioid receptor binding) or rat forebrain membranes (for NMDA receptor binding). 2 nM [^3H] Naloxone (MOR) or 0.2 nM [^3H] MK801 (NMDA) were used as the specific, competitive radioligands. 10 uM Naloxone (MOR), or 10 uM MK801 (NMDA) was used to determine non-specific binding. Bound radioactivity was measured using a scintillation counter & IC50 values for test compounds were determined by non-linear regression analysis using a one-site competition model (Graph Pad Prizm). Due to each test compound being solubilized in a buffered system for the assay, the results presented herein reflect the free base activity.

NMDA receptor = experiment: Competitive radioligand binding at NMDA receptor ([3H] MK801), rat forebrain membranes; settings: 0.2 nM [3H] MK801, reflects free base activity
Experimental: as §1, §2

[1] = membranes from CHO-K1 cells expressing MOR, 2 nM [3H] Naloxone, reflects free base activity, read-out: MOR IC50

Row | Compound | pIC50 (mu opioid receptor (MOR); [1]) | pIC50 (NMDA receptor) | pIC50 (mu opioid receptor (MOR))
1 | COCCOCCOc1cc(Nc2ccc3c(c2)[C@@]24CCCC[C@H]2[C@@H](C3)N(C)CC4)ccn1 [Compound 67, N-{2-[2-(2-methoxyethoxy)ethoxy]pyridin-4-yl}-17-methylmorphinan-3-amine] | 6.00 to 7.00 | < 5.00 | –
2 | COCCOCCOCCOCCOCCOc1ccc2c(c1)[C@]13CCN(C)[C@H](C2)[C@@H]1CCC(=O)C3 [Compound 8, 17-methyl-3-(2,5,8,11,14-pentaoxahexadecan-16-yloxy)morphinan-6-one] | < 6.00 | < 5.00 | –
3 | COCCOCCOc1ccccc1Nc1ccc2c(c1)[C@@]13CCCC[C@H]1[C@@H](C2)N(C)CC3 [Compound 35, N-{2-[2-(2-methoxyethoxy)ethoxy]phenyl}-17-methylmorphinan-3-amine] | 6.00 to 7.00 | < 5.00 | –
4 | CN1CC[C@]23CCCC[C@H]2[C@H]1Cc1cc2nc(N)[nH]c2cc13 [Compound 82, (4aR,5R,11bR)-14-methyl-1,2,3,4,4a,5,6,10-octahydro-5,11b-(epiminoethano)phenanthro[2,3-d]imidazol-9-amine] | 6.00 to 7.00 | < 5.00 | –
5 | COCCOCCOCCOCCOCCCC(=O)Nc1nc2cc3c(cc2s1)C[C@@H]1[C@@H]2CCCC[C@]32CCN1C [Compound 80, N-[(4aR,5R,11bR)-14-methyl-2,3,4,4a,5,6-hexahydro-1H-5,11b-(epiminoethano)phenanthro[3,2-d][1,3]thiazol-9-yl]-2,5,8,11,14-pentaoxaoctadecan-18-amide] | < 6.00 | 5.00 to 6.00 | –
6 | COCCOCCOCCNc1nc2ccc3c(c2s1)[C@@]12CCCC[C@H]1[C@@H](C3)N(C)CC2 [Compound 78, (7R,7aR,11aR)—N-(2-(2-(2-methoxyethoxy)ethoxy)ethyl)-14-methyl-7,7a,8,9,10,11-hexahydro-6H-7,11a-(epiminoethano)phenanthro[3,4-d]thiazol-2-amine] | < 6.00 | < 5.00 | –
7 | CN1CC[C@]23CCCC[C@H]2[C@H]1Cc1cc2ncc(N)nc2cc13 [Compound 94, (4aR,5R,12bR)-15-methyl-2,3,4,4a,5,6-hexahydro-1H-5,12b-(epiminoethano)naphtho[1,2-g]quinoxalin-10-amine] | < 6.00 | 6.00 to 7.00 | –
8 | COCCOCCOc1cnccc1Nc1ccc2c(c1)[C@@]13CCCC[C@H]1[C@@H](C2)N(C)CC3 [Compound 66, (4bR,8aR,9R)—N-(3-(2-(2-methoxyethoxy)ethoxy)pyridin-4-yl)-11-methyl-6,7,8,8a,9,10-hexahydro-5H-9,4b-(epiminoethano)phenanthren-3-amine] | 6.00 to 7.00 | 5.00 to 6.00 | –
9 | CN1CC[C@]23CCCC[C@H]2[C@H]1Cc1ccc(Nc2ccccn2)cc13 [Compound 63, 17-methyl-N-(pyridin-2-yl)morphinan-3-amine] | – | 6.00 to 7.00 | 6.00 to 7.00
10 | Oc1ccc2c(c1)[C@@]13CCCC[C@H]1[C@@H](C2)N(CC1COC1)CC3 [Compound 88, 17-(oxetan-3-ylmethyl)morphinan-3-ol] | – | 5.00 to 6.00 | 7.00 to 8.00
11 | COCCOCCN1CC[C@]23CCCC[C@H]2[C@H]1Cc1ccc(Nc2nccs2)cc13 [Compound 105, N-((4bR,8aR,9R)-11-(2-(2-methoxyethoxy)ethyl)-6,7,8,8a,9,10-hexahydro-5H-9,4b-(epiminoethano)phenanthren-3-yl)thiazol-2-amine] | – | < 5.00 | 6.00 to 7.00
12 | Oc1ccc2c(c1)[C@@]13CCCC[C@H]1[C@@H](C2)N(C1COC1)CC3 [Compound 87, 17-(oxetan-3-yl)morphinan-3-ol] | < 6.00 | < 5.00 | –
13 | CN1CC[C@]23CCCC[C@H]2[C@H]1Cc1cc2nnc(N)nc2cc13 [Compound 95, (4aR,5R,12bR)-15-methyl-2,3,4,4a,5,6-hexahydro-1H-5,12b-(epiminoethano)phenanthro[3,2-e][1,2,4]triazin-10-amine] | < 6.00 | 5.00 to 6.00 | –
14 | CN1CC[C@]23CCCC[C@H]2[C@H]1Cc1ccc(N(c2ccccn2)c2ccccn2)cc13 [Compound 57, 17-methyl-N,N-di(pyridin-2-yl)morphinan-3-amine] | < 6.00 | 5.00 to 6.00 | –
15 | CN1CC[C@]23CCCC[C@H]2[C@H]1Cc1ccc(-c2cnc(N)nc2)cc13 [Compound 52, 5-(17-methylmorphinan-3-yl)pyrimidin-2-amine] | < 6.00 | 5.00 to 6.00 | –
16 | COCCOCCOCCOCCOCCOCC(=O)Nc1ccc2c(c1)[C@@]13CCCC[C@H]1[C@@H](C2)N(C)CC3 [Compound 42, N-(17-methylmorphinan-3-yl)-2,5,8,11,14,17-hexaoxanonadecan-19-amide] | 6.00 to 7.00 | < 5.00 | –
17 | COCCOCCOCCN1CC[C@]23CC(=O)CC[C@H]2[C@H]1Cc1ccc(OC)cc13 [Compound 4, 3-methoxy-17-{2-[2-(2-methoxyethoxy)ethoxy]ethyl}morphinan-6-one] | < 6.00 | < 5.00 | –

Row | Compound | pIC50 (mu opioid receptor (MOR); [1]) | pIC50 (NMDA receptor) | pIC50 (mu opioid receptor (MOR))
18 | COCCOCCOc1cccc(Nc2ccc3c(c2)[C@@]24CCCC[C@H]2[C@@H](C3)N(C)CC4)c1 [Compound 34, N-{3-[2-(2-methoxyethoxy)ethoxy]phenyl}-17-methylmorphinan-3-amine] | 8.00 to 10.00 | < 5.00 | –
19 | CN1CC[C@]23CCCC[C@H]2[C@H]1Cc1ccc(Nc2ncccn2)cc13 [Compound 32, 17-methyl-N-(pyrimidin-2-yl)morphinan-3-amine] | < 6.00 | 6.00 to 7.00 | –
20 | CN1CC[C@]23CCCC[C@H]2[C@H]1Cc1cc2sc(NC(=N)N)nc2cc13 [Compound 84, 1-((4aR,5R,11bR)-14-methyl-2,3,4,4a,5,6-hexahydro-1H-5,11b-(epiminoethano)phenanthro[3,2-d]thiazol-9-yl)guanidine] | 6.00 to 7.00 | 5.00 to 6.00 | –
21 | CN1CC[C@]23Cc4nc(N)sc4C[C@H]2[C@H]1Cc1ccc(O)cc13 [Compound 90, (6R,6aR,11aS)-9-amino-14-methyl-6,6a,7,11-tetrahydro-5H-6,11a-(epiminoethano)phenanthro[3,2-d]thiazol-2-ol] | – | < 5.00 | 7.00 to 8.00
22 | COc1ccc(C(=O)Nc2ccc3c(c2)[C@@]24CCCC[C@H]2[C@@H](C3)N(C)CC4)cc1 [Compound 24, 4-methoxy-N-((4bR,8aR,9R)-11-methyl-6,7,8,8a,9,10-hexahydro-5H-9,4b-(epiminoethano)phenanthren-3-yl)benzamide] | – | < 5.00 | 6.00 to 7.00
23 | CCNC(=O)N1CC[C@]23CCCC[C@H]2[C@H]1Cc1ccc(OC)cc13 [Compound 17, N-ethyl-3-methoxymorphinan-17-carboxamide] | < 6.00 | < 5.00 | –
24 | COCCOCCOCCN1CC[C@]23CC(=O)CC[C@H]2[C@H]1Cc1ccc(O)cc13 [Compound 6, 3-hydroxy-17-{2-[2-(2-methoxyethoxy)ethoxy]ethyl}morphinan-6-one] | – | < 5.00 | 6.00 to 7.00
25 | CN1CC[C@]23CCCC[C@H]2[C@H]1Cc1ccc(Nc2cncnc2)cc13 [Compound 53, 17-methyl-N-(pyrimidin-5-yl)morphinan-3-amine] | – | < 5.00 | 7.00 to 8.00
26 | COc1cccc(Nc2ccc3c(c2)[C@@]24CCCC[C@H]2[C@@H](C3)N(C)CC4)c1 [Compound 29, N-(3-methoxyphenyl)-17-methylmorphinan-3-amine] | – | 5.00 to 6.00 | 8.00 to 10.00
27 | COc1ccc(NC(=O)c2ccc3c(c2)[C@@]24CCCC[C@H]2[C@@H](C3)N(C)CC4)cc1 [Compound 38, N-(4-methoxyphenyl)-17-methylmorphinan-3-carboxamide] | – | < 5.00 | 6.00 to 7.00
28 | CN1CC[C@]23CCCC[C@H]2[C@H]1Cc1ccc(-c2ccncc2)cc13 [Compound 45, 17-methyl-3-(pyridin-4-yl)morphinan] | < 6.00 | 5.00 to 6.00 | –
29 | COCCOCCOCCOCCOCCO[C@H]1CC[C@H]2[C@H]3Cc4ccc(O)cc4[C@@]2(CCN3C)C1 [Compound 10, (6α)-17-methyl-6-(2,5,8,11,14-pentaoxahexadecan-16-yloxy)morphinan-3-ol] | 6.00 to 7.00 | < 5.00 | –
30 | CN1CC[C@]23CCCC[C@H]2[C@H]1Cc1ccc(Nc2ccnnc2)cc13 [Compound 56, 17-methyl-N-(pyridazin-4-yl)morphinan-3-amine] | – | 7.00 to 10.00 | 6.00 to 7.00
31 | COc1cccc(C(=O)Nc2ccc3c(c2)[C@@]24CCCC[C@H]2[C@@H](C3)N(C)CC4)c1 [Compound 25, 3-methoxy-N-((4bR,8aR,9R)-11-methyl-6,7,8,8a,9,10-hexahydro-5H-9,4b-(epiminoethano)phenanthren-3-yl)benzamide] | < 6.00 | < 5.00 | –
32 | COCCNC(=O)Nc1ccc2c(c1)[C@@]13CCCC[C@H]1[C@@H](C2)N(C)CC3 [Compound 23, 1-(2-methoxyethyl)-3-(17-methylmorphinan-3-yl)urea] | – | < 5.00 | 6.00 to 7.00
33 | COCCOCCOCCO[C@H]1CC[C@H]2[C@H]3Cc4ccc(O)cc4[C@@]2(CCN3C)C1 [Compound 9, (6α)-6-{2-[2-(2-methoxyethoxy)ethoxy]ethoxy}-17-methylmorphinan-3-ol] | – | < 5.00 | 7.00 to 8.00
34 | CN1CC[C@]23CCCC[C@H]2[C@H]1Cc1cc2ccc(=O)[nH]c2cc13 [Compound 102, (4aR,5R,12bR)-15-methyl-1,2,3,4,4a,5,6,11-octahydro-10H-5,12b-(epiminoethano)naphtho[2,1-g]quinolin-10-one] | < 6.00 | < 5.00 | –

— patent US10766864B2, “Morphinan derivatives for the treatment of neuropathic pain” (Nektar Therapeutics, priority 2015, dated 2020)
